In ChEMBL document CHEMBL5214943, “Guanidino quinazolines and pyrimidines promote readthrough of premature termination codons in cells with native nonsense mutations” (Bioorg Med Chem Lett, 2022):
Calls of active or inactive are those of the source. No cut-off for these calls is given here.

The compounds below were run against Dystrophin (Mus musculus) (UniProt P11531) (assay: Induction of read through activity at dystrophin in mouse H2K mdx cells assessed as increase in production of full length dystrophin protein at <2 uM by MSD assay). Details: filed as activator.
Format: cell-based

Dystrophin (Mus musculus), sequence (P11531 whole entry): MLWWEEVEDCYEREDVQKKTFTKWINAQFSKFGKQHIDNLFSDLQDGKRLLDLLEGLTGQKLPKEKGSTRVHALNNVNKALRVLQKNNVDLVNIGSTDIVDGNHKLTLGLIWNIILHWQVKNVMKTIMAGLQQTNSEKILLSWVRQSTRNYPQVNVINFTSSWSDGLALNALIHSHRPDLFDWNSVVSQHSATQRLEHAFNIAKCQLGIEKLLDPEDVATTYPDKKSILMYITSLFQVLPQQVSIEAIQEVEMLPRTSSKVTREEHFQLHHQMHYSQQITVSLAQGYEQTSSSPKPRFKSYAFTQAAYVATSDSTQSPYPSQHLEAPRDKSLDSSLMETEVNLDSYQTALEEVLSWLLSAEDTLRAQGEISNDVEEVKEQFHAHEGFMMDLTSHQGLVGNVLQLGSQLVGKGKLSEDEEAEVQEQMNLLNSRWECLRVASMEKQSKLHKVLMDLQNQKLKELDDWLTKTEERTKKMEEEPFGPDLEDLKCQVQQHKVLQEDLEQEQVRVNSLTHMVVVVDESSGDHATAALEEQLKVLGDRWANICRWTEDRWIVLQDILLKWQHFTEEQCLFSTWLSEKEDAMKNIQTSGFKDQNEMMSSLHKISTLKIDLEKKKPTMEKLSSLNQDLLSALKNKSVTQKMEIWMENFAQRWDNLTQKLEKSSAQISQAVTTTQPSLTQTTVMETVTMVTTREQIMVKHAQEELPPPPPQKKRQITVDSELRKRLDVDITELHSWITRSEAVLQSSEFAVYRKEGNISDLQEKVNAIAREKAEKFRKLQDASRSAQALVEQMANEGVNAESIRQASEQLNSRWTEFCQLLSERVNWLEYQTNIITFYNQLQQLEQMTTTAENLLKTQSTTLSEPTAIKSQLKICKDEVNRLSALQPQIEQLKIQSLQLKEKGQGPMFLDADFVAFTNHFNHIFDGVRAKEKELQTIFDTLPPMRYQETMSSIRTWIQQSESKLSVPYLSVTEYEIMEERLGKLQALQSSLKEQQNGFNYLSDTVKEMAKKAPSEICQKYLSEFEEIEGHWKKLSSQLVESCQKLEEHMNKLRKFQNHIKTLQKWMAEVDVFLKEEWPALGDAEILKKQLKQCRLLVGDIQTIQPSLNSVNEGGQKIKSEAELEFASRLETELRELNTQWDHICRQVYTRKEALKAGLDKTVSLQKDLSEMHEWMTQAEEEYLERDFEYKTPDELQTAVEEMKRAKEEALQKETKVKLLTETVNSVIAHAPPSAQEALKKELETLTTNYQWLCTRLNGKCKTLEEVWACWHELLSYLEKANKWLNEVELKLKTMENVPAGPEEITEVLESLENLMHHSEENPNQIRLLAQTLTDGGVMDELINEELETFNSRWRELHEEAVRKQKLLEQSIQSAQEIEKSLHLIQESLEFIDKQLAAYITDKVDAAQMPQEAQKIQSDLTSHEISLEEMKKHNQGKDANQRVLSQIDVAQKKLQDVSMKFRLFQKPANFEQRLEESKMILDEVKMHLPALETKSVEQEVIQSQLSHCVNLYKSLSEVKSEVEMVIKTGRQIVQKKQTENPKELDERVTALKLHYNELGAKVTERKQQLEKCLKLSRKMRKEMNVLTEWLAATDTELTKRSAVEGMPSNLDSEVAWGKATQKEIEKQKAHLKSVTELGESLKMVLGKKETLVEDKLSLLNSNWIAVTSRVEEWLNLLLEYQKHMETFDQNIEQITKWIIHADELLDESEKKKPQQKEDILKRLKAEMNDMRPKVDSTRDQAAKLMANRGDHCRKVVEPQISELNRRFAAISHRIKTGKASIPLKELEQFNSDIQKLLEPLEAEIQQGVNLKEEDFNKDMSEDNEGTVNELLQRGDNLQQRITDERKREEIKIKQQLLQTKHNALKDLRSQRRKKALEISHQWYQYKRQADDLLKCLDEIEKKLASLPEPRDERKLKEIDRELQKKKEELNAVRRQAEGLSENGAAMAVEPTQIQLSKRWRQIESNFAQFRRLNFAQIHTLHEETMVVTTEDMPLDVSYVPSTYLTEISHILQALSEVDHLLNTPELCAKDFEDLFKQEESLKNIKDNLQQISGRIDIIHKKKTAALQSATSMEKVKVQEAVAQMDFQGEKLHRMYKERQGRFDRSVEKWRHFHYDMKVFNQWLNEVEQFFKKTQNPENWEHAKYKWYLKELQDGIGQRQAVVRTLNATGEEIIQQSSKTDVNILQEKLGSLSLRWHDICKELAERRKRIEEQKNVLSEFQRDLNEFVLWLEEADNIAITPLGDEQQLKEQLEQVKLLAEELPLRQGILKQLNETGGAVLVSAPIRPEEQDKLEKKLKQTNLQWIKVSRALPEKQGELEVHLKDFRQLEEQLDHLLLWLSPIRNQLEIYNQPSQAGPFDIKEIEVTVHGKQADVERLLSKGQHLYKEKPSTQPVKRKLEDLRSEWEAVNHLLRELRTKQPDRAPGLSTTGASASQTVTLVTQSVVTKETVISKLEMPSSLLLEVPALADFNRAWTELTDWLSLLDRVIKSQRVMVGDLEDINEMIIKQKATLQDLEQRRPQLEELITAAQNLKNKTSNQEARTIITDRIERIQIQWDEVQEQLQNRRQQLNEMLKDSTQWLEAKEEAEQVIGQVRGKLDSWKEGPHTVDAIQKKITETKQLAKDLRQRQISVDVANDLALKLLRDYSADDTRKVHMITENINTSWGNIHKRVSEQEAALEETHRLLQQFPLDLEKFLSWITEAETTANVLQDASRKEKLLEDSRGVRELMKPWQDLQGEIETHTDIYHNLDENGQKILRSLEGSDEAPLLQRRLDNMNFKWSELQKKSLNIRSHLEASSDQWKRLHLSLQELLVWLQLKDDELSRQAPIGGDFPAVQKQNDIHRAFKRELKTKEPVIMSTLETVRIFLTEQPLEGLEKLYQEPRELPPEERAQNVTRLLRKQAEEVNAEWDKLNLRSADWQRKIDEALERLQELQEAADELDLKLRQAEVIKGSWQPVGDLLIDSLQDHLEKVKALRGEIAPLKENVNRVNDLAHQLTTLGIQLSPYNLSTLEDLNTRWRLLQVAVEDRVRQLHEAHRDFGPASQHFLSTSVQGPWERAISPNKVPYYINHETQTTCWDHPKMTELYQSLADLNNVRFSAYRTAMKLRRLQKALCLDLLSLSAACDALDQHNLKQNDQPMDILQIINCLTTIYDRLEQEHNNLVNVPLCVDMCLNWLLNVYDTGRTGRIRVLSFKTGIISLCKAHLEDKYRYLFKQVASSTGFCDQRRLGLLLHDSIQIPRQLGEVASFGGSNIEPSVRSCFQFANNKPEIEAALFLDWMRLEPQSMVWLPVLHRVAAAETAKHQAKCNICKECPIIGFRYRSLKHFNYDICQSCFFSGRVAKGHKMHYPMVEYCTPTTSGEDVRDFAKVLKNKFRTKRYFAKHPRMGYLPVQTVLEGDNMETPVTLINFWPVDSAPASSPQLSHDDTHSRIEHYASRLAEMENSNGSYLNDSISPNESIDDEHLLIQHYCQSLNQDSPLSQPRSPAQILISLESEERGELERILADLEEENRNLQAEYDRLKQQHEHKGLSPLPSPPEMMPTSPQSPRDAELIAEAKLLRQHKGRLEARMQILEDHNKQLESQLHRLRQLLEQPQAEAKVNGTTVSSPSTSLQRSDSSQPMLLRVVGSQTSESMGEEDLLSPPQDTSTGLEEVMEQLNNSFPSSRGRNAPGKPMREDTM

| SMILES | Activity |
| --- | --- |
| N=C(NCCCN1CCCCC1)Nc1nc2c(c(-c3ccoc3)n1)CCC2 | Active |

The compounds below were run against Dystrophin (Mus musculus) (UniProt P11531) (assay: Induction of read through activity at dystrophin in mouse H2K mdx cells assessed as increase in production of full length dystrophin protein at 0.01 to 100 uM by MSD assay). Details: filed as activator, dose 0.01-100 µM.
Format: cell-based

| SMILES | Activity |
| --- | --- |
| Cc1nc(NC(=N)NCCCN2CCCC2)nc(-c2ccoc2)c1C | Active |

What follows are compounds tested on Premature termination codon (assay: Induction of read through activity at T-p53 R213X mutant premature termination codon in human HDQ-P1 cells assessed as increase in production of full length p53 protein by MSD assay). Details: not given.
Format: cell-based

| SMILES | EC2 |
| --- | --- |
| Cc1nc(NC(=N)Nc2cccc(N(C)C)c2)nc2cc(Cl)ccc12 | > 30 µM |
| Cc1nc(NC(=N)NCCCN2CCCC2)nc(C)c1-c1ccoc1 | > 30 µM |
| Cc1ccnc(NC(=N)NCCCN(C)C)n1 | > 30 µM |
| Cc1ccc2cnc(NC(=N)N)nc2c1 | > 100 µM |
| Cc1nc(NC(=N)NCC(F)(F)CN(C)C)nc2ccccc12 | > 30 µM |
| Cc1nc(NC(=N)N)cc2ccccc12 | > 100 µM |
| Cc1nc(NC(=N)NCCCN(C)CC(=O)O)nc2ccccc12 | > 30 µM |
| Cc1nc(NS(N)(=O)=O)nc2cc(Cl)ccc12 | > 100 µM |
| Cc1nc(NC(=N)N(C)CCCN(C)C)nc2ccccc12 | > 30 µM |
| Cc1ccc2c(C)cc(NC(=N)N)nc2c1 | > 100 µM |
| Cc1nc(NC(=N)NCC(=O)O)nc2cc(F)ccc12 | > 100 µM |
| Cc1nc(N)nc2ccccc12 | > 100 µM |
| Cc1nc(NC(=N)NCCCN(C)CC(F)(F)F)nc2ccccc12 | > 30 µM |
| C/N=C(/NCCCN(C)C)Nc1nc(C)c2ccccc2n1 | > 30 µM |
| Cc1nc(NC(N)=O)nc2cc(Cl)ccc12 | > 100 µM |

Same assay, conditions: filed as activator

| SMILES | EC2 |
| --- | --- |
| Cc1cc(-c2ccoc2)nc(NC(=N)NCCCN(C)C)n1 | 3 µM |
| CN(C)CCCNC(=N)Nc1nc(-c2ccccc2)c2ccccc2n1 | 7.5 µM |
| CN(C)CCCNC(=N)Nc1nc2c(c(-c3ccoc3)n1)COC2 | 2.4 µM |
| COCCNC(=N)Nc1nc(C)c2ccc(C)cc2n1 | 12 µM |
| N=C(NCCCN1CCC1)Nc1nc2c(c(-c3ccoc3)n1)CCC2 | 0.44 µM |
| CCN(CC)CCCNC(=N)Nc1nc(C)c2ccc(F)cc2n1 | 2.2 µM |
| Cc1nc(NC(=N)NCCCN(C)C)nc2cccc(F)c12 | 0.92 µM |
| Cc1ccc2nc(NC(=N)NCCCN3CCCC3)nc(C)c2c1 | 2.3 µM |
| CN1CCC(NC(=N)Nc2nc3c(c(-c4ccoc4)n2)CCC3)CC1 | 0.22 µM |
| CN(C)CCCNC(=N)Nc1ncc2ccccc2n1 | 7.5 µM |
| CNC(=N)Nc1nc(C)c2ccc(C)cc2n1 | 7.7 µM |
| CN(C)CCCNC(=N)Nc1nc(-c2ccoc2)c2occc2n1 | 2 µM |
| Cc1nc(NC(=N)NCCCN2CCCC2)nc(-c2cccs2)c1C | 0.42 µM |
| Cc1nc(NC(=N)NCCCN(C)[C@H](C)c2ccccc2)nc2ccccc12 | 1.8 µM |
| CN(C)CCCNC(=N)Nc1nc(-c2ccoc2)c2sccc2n1 | 0.7 µM |
| Cc1cccc2nc(NC(=N)NC3CCNCC3)nc(C)c12 | 1.1 µM |
| CCc1c(C)nc(NC(=N)NCCCN2CCCC2)nc1-c1ccoc1 | 3.2 µM |
| CN(C)CCCNC(=N)Nc1nc2c(c(-c3ccoc3)n1)CCC2 | 0.44 µM |
| Cc1nc(NC(=N)NCCCN2CCCC2)nc(-c2ccoc2)c1C | 1.2 µM |
| Cc1nc(NC(=N)NCCCCCCN(C)C)nc2cc(F)ccc12 | 17 µM |
| Cc1nc(NC(=N)NCCCN2CCCCC2)nc2cc(F)ccc12 | 0.68 µM |
| Cc1nc(N=C(N)N)nc2cc(Cl)ccc12 | 6.3 µM |
| Cc1nc(NC(=N)NCCCc2ccccc2)nc2ccccc12 | 47 µM |
| Cc1cccc2nc(NC(=N)NCCCN3CCCC3)nc(C)c12 | 0.84 µM |
| Cc1nc(NC(=N)NCCCN)nc2cc(F)ccc12 | 9.8 µM |

| SMILES | EC2 |
| --- | --- |
| N=C(NCCCN1CCCCC1)Nc1nc2c(c(-c3ccoc3)n1)CCC2 | 0.4 µM |
| Cc1nc(NC(=N)N[C@H](C)CCN(C)C)nc2ccccc12 | 2.5 µM |
| N=C(NCCCN1CCCC1)Nc1nc2c(c(-c3ccoc3)n1)CCC2 | 0.44 µM |
| Cc1ccc2c(C)nc(NC(=N)NCCCN3CCCC3)nc2c1 | 1 µM |
| Cc1nc(NC(=N)NCCCCCN(C)C)nc2cc(F)ccc12 | 6.6 µM |
| Cc1nc(NC(=N)NCCCN(C)C)nc2ccccc12 | 1.7 µM |
| Cc1cccc2nc(NC(=N)N[C@H]3CCN(C)C3)nc(C)c12 | 1 µM |
| Cc1cccc2nc(NC(=N)N[C@H]3CCNC3)nc(C)c12 | 2.2 µM |
| CNCCCNC(=N)Nc1nc(C)c2ccc(F)cc2n1 | 2.5 µM |
| Cc1nc(NC(=N)NCCCN(C)C)nc(-c2ccoc2)c1C | 1.3 µM |
| Cc1cccc2nc(NC(=N)N[C@@H]3CCNC3)nc(C)c12 | 1.3 µM |
| CCc1cc(C)nc(NC(=N)NCCCN(C)C)n1 | 17 µM |
| Cc1cc(-c2ccccc2)nc(NC(=N)NCCCN(C)C)n1 | 7.3 µM |
| Cc1nc(NC(=N)NCCO)nc2cc(F)ccc12 | 26 µM |
| Cc1nc(NC(=N)NCCCN2CCOCC2)nc2cc(F)ccc12 | 4.7 µM |
| Cc1nc(NC(=N)NCCCN(C)CC2CCC2)nc2cc(F)ccc12 | 1.1 µM |
| Cc1nc(NC(=N)NCCCN(C)C)nc2cc(F)ccc12 | 1.1 µM |
| Cc1nc(NC(=N)NCCCN2CCCC2)nc(-c2ccoc2)c1C(F)(F)F | 15 µM |
| Cc1ccc2c(C)nc(NC(=N)N)nc2c1 | 10 µM |
| Cc1nc(NC(=N)NC2CCCC(N(C)C)C2)nc2cc(F)ccc12 (stereo not given) | 5.5 µM |
| Cc1nc(NC(=N)NCCCN(C)C)nc2cc(F)cc(F)c12 | 2.9 µM |
| Cc1nc(NC(=N)NCCCN2CCN3CCCCC3C2)nc2cc(F)ccc12 (stereo not given) | 3.5 µM |
| Cc1nc(NC(=N)N)nc2ccccc12 | 20 µM |
| CN(C)CCCNC(=N)Nc1nc(-c2ccoc2)c2ccsc2n1 | 1.3 µM |
| Cc1nc(NC(=N)NCCCN2CCCC2)nc(-c2ccco2)c1C | 0.56 µM |

| SMILES | EC2 |
| --- | --- |
| Cc1nc(NC(=N)NCCCN2CCCC2)nc(-c2ccoc2)c1Cl | 0.77 µM |
| Cc1nc(N=C(N)N)nc2cc(F)ccc12 | 13 µM |
| Cc1nc(NC(=N)NCCCN2CCCC2)nc2ccccc12 | 2.1 µM |
| Cc1nc(NC(=N)NCCCN2CCCC2)nc2cc(F)ccc12 | 1.5 µM |
| Cc1cccc2nc(NC(=N)NC3CCN(C)CC3)nc(C)c12 | 0.51 µM |
| Cc1nc(NC(=N)NCCCN2CCCC2)nc(-c2ccsc2)c1C | 1.4 µM |
| Cc1nc(NC(=N)NCCCN2CCCC2)nc2c(C)cccc12 | 0.55 µM |
| CN(C)CCCNC(=N)Nc1nc2c(c(-c3ccoc3)n1)CCCCC2 | 3.5 µM |
| Cc1nc(NC(=N)NCCCN2CCC3(CCC3)C2)nc2cc(F)ccc12 | 2.3 µM |
| Cc1nc(NC(=N)NCCCN(C)C)nc2cc(Cl)ccc12 | 0.85 µM |
| Cc1cccc2nc(NC(=N)N[C@@H]3CCN(C)C3)nc(C)c12 | 0.34 µM |
| CN[C@@H]1[C@@H](O)[C@@H](O[C@@H]2[C@@H](O)[C@H](O[C@H]3O[C@H]([C@H](C)O)[C@@H](O)[C@H](O)[C@H]3N)[C@@H](N)C[C@H]2N)OC[C@]1(C)O | 8.5 µM |
| CN1CCC(NC(=N)Nc2nc3c(c(-c4ccco4)n2)CCC3)CC1 | 0.12 µM |
| COc1cccc(NC(=N)Nc2nc(C)c3ccccc3n2)c1 | 21 µM |
| Cc1nc(NC(=N)NCCCCN(C)C)nc2cc(F)ccc12 | 2.2 µM |
| Cc1nc(NC(=N)NCCCN2CCCC2)nc(-c2ccoc2)c1F | 1.6 µM |
| Cc1nc(NC(=N)NCC2(CN(C)C)CCCC2)nc2cc(F)ccc12 | 16 µM |
| Cc1nc(NC(=N)NCCN(C)C)nc2cc(F)ccc12 | 3.9 µM |
| Cc1ccc2c(C)nc(NC(=N)NCCOCCO)nc2c1 | 48 µM |
| Cc1nc(NC(=N)NCCCN2CCCC2)nc(-c2ccoc2)c1Br | 0.96 µM |
| CN(C)CCCNC(=N)Nc1nc2c(c(-c3ccoc3)n1)CCCCCC2 | 2.7 µM |
| Cc1nc(NC(=N)NCCCN(C)[C@@H](C)c2ccccc2)nc2ccccc12 | 2.2 µM |
| Cc1ccc2c(C)nc(NC(=N)NCCCN(C)C)nc2c1 | 1.1 µM |
| CCNC(=N)Nc1nc(C)c2ccc(Cl)cc2n1 | 21 µM |
| CN(C)CCCNC(=N)Nc1nc2c(c(-c3ccoc3)n1)CCCC2 | 1.1 µM |

Each compound was assayed against Dystrophin (Mus musculus) (UniProt P11531) (assay: Induction of read through activity at dystrophin in mouse H2K mdx cells assessed as increase in production of full length dystrophin protein at 0.6 to 20 uM by western blot assay). Details: filed as activator, dose 0.6-20 µM.
Format: cell-based

| SMILES | Activity |
| --- | --- |
| Cc1nc(NC(=N)NCCCN2CCCC2)nc(-c2ccoc2)c1C | Active |

These compounds were tested against Dystrophin (Mus musculus) (UniProt P11531) (assay: Induction of read through activity at dystrophin in mouse H2K mdx cells assessed as increase in production of full length dystrophin protein by measuring fold change at 0.01 to 100 uM by MSD assay). Details: filed as activator, dose 0.01-100 µM.
Format: cell-based

| SMILES | fold change (FC) |
| --- | --- |
| N=C(NCCCN1CCCCC1)Nc1nc2c(c(-c3ccoc3)n1)CCC2 | 3 |

Each compound was assayed against Dystrophin (Mus musculus) (UniProt P11531) (assay: Induction of read through activity at dystrophin in mouse H2K mdx cells assessed as increase in production of full length dystrophin protein at 0.07 to 2 uM by western blot assay). Details: filed as activator, dose 0.07-2 µM.
Format: cell-based

| SMILES | Activity |
| --- | --- |
| N=C(NCCCN1CCCCC1)Nc1nc2c(c(-c3ccoc3)n1)CCC2 | Active |
